Patent US10526660B2, “Methods for evaluating and treating Waldenstrom's macroglobulinemia” (Dana-Farber Cancer Institute, Inc., priority 2013, dated 2020)
Like-named read-outs stand apart in the source and are kept apart here.

What was measured:
[1] = tested on: phospho-AKT, phospho-ERK and phospho-BTK; experiment: SDF-1a triggered AKT, ERK and BTK signaling (phosphoflow, immunoblotting) in transduced BCWM.1 cells; assay type: cell-based
[2] = tested on: CXCR4^S338X MWCL-1 cells; experiment: PARP and caspase 3 cleavage by immunoblotting (apoptosis), MWCL-1; assay type: cell-based; settings: for level of SDF-1a mediated rescue from PARP and caspase 3 cleavage: agents at EC50 dose ranges, 6 hours, SDF-1a 20 nM
[3] = tested on: CXCR4^S338X BCWM.1 cells; experiment: PARP and caspase 3 cleavage by immunoblotting (apoptosis), BCWM.1; assay type: cell-based; settings: for level of SDF-1a mediated rescue from PARP and caspase 3 cleavage: agents at EC50 dose ranges, 6 hours, SDF-1a 20 nM
[4] = tested on: BCWM.1 WM cells; experiment: Annexin V staining (apoptosis) of CXCR4 frameshift/nonsense mutant expressing BCWM.1 cells, Example 6; assay type: cell-based; settings: CXCR4^T311fs and CXCR4^S344fs cells; for SDF-1a rescue of ibrutinib or idelalisib treated cells: MK-2206 0.5 uM, AS-703026 0.25 uM, 18 hours
Excerpt: CXCR4^WT, CXCR4^FS, CXCR4^S338X cDNAs were subcloned into plenti-IRES-GFP vector, and transduced using a lentiviral based strategy into BCWM.1 WM cells as before (Cao et al, 2014; Yang et al, 2013). Frameshift mutations proximal and distal to CXCR4^S338X that were identified in WM patients by WGS were studied (FIG. 11). […] The nonsense mutation CXCR4^S338X resulted from C>G change at 136872485 (Hunter et al, 2013). Five days after transduction, GFP positive cells were sorted and used for functional studies. Surface CXCR4 expression was determined at baseline, and following stimulation for 30 minutes with SDF-1a (10-100 nM) as before (Cao et al, 2014). Phosphoflow experiments were performed using conjugated antibodies to phospho-ERK1/2 (T^202/Y^204) and phospho-AKT(S^473) (BD Phosflow) as previously described (Cao et al, 2014). […] Survival studies related to AKT and ERK were performed in the presence or absence AKT (MK-2206, 0.5 uM) or MEK (AS-703026, 0.25 uM) specific inhibitors (Selleck Chemicals, Houston Tex.) as previously reported (Cao et al, 2014).

[5] = tested on: BCWM.1 and MWCL-1 cells; experiment: Annexin V staining (apoptosis), Example 5; assay type: cell-based; settings: 18 hours
[6] = tested on: pAKT and pERK; experiment: Immunohistochemical staining for pAKT and pERK in bone marrow of WM patients on ibrutinib; assay type: in vivo, human
[7] = tested on: CXCR4; experiment: Cell surface CXCR4 expression by flow cytometry in transfected WM cells; assay type: cell-based
Procedure: (§1) Five days after transduction, GFP positive cells were sorted and used for functional studies. Surface expression of CXCR4 was determined by flow cytometric analysis using a PE-conjugated anti-CXCR4 monoclonal antibody (BD Biosciences, San Jose Calif.). Transduced cell lines were stimulated with or without SDF-1a (10-100 nM), and cell surface expression of CXCR4 determined on CXCR4^WT and S338X transduced cells. CXCR4 expression levels were calculated as: [(receptor geometric mean fluorescence intensity [MFI] of treated cells-MFI of isotype IgG control)/(receptor geometric MFI of unstimulated cells-MFI of isotype IgG control)]×100.

[8] = tested on: BCWM.1 and MWCL-1 cells; settings: CXCR4^S338X expressing cells; co-treatment ibrutinib and AMD3100 30 uM
Procedure: as §1

[9] = tested on: BCWM.1 WM cells; settings: CXCR4 S338X transduced cells; 30 nM AMD3100; p<0.005
Excerpt: Five days after transduction, GFP positive cells were sorted and used for functional studies.

[10] = tested on: WHIM patients; settings: WHIM patients treated daily for 6 months; cited from earlier work
[11] = CXCR4^WT and CXCR4^S338X expressing BCWM.1 cells, pre-treatment 2 hours, AMD3100 30 uM or pertussis toxin 500 ng, SDF-1a 20 nM
[12] = SDF-1a cultured CXCR4^S338X BCWM.1 cells, AS-703026 0.25 uM, AZD-6244 0.5 uM, U0126 5.0 uM
[13] = CXCR4^S338X BCWM.1 and MWCL-1 cells

pertussis toxin
SDF-1a triggered AKT and ERK activation [1, 11]: blocked both AKT and ERK activation

Cn1c(CCCC(=O)O)nc2cc(N(CCCl)CCCl)ccc21 [bendamustine]
level of SDF-1a mediated rescue from PARP and caspase 3 cleavage [2]: little to no SDF-1a rescue
level of SDF-1a mediated rescue from PARP and caspase 3 cleavage [3]: moderate

Nc1nc(F)nc2c1ncn2[C@@H]1O[C@H](CO)[C@@H](O)[C@@H]1O [fludarabine]
level of SDF-1a mediated rescue from PARP and caspase 3 cleavage [2]: lesser levels of rescue
level of SDF-1a mediated rescue from PARP and caspase 3 cleavage [3]: moderate

Cn1cnc2c(F)c(Nc3ccc(Br)cc3Cl)c(C(=O)NOCCO)cc21 [AZD-6244]
inhibitory activity by western blot analysis for pERK (T202/Y204) [1, 12]: confirmed

N#CC(=C(/N)Sc1ccccc1N)/C(C#N)=C(\N)Sc1ccccc1N [U0126]
inhibitory activity by western blot analysis for pERK (T202/Y204) [1]: confirmed

AZD-5363
inhibitory effect on AKT (phospho-activity of downstream targets GKS3β and pS6) ([1]; CXCR4^S338X BCWM.1 cells, 0.5 uM): confirmed by inhibition of the phospho-activity

NC1(c2ccc(-c3nc4ccn5c(=O)[nH]nc5c4cc3-c3ccccc3)cc2)CCC1 [MK-2206]
SDF-1a rescue of ibrutinib or idelalisib treated cells [4]: attenuated SDF-1a rescue
inhibitory activity by western blot analysis for pAKT (S473) ([1]; SDF-1a cultured CXCR4^S338X BCWM.1 cells, 0.5 uM): confirmed

O=C(NC[C@H](O)CO)c1ccncc1Nc1ccc(I)cc1F [AS-703026]
SDF-1a rescue of ibrutinib or idelalisib treated cells [4]: attenuated SDF-1a rescue
inhibitory activity by western blot analysis for pERK (T202/Y204) [1, 12]: confirmed

CC[C@H](Nc1ncnc2[nH]cnc12)c1nc2cccc(F)c2c(=O)n1-c1ccccc1 [idelalisib]
Annexin V studies: SDF-1a rescue [5, 13]: pronounced rescue by SDF-1a
level of SDF-1a mediated rescue from PARP and caspase 3 cleavage [2]: moderate level of rescue
level of SDF-1a mediated rescue from PARP and caspase 3 cleavage [3]: strong

C=CC(=O)N1CCC[C@@H](n2nc(-c3ccc(Oc4ccccc4)cc3)c3c(N)ncnc32)C1 [ibrutinib, 1-[(3R)-3-[4-amino-3-(4-phenoxyphenyl)pyrazolo[3,4-d]pyrimidin-1-yl]piperidin-1-yl]prop-2-en-1-one]
Annexin V staining: SDF-1a effect on ibrutinib mediated apoptotic changes ([5]; ibrutinib plus SDF-1a): rescue of ibrutinib mediated apoptotic changes by SDF-1a
pAKT staining in bone marrow on continuous ibrutinib therapy ([6]; CXCR4^WHIM patients, 6 months): remained robust without any changes from baseline
pAKT staining in bone marrow on continuous ibrutinib therapy ([6]; CXCR4^WT patients): marginal pAKT staining
pERK staining in bone marrow despite ibrutinib therapy ([6]; all patients, regardless of CXCR4 mutation status): low levels of pERK staining
cell surface CXCR4 expression following ibrutinib treatment ([7]; CXCR4^WT or CXCR4^S338X expressing WM cells, 0.5, 1, 2, and 6 hours): little or no significant changes
SDF-1a related changes in cell surface CXCR4 expression ([7]; vector only, CXCR4^WT and CXCR4^S338X transfected WM cells, addition of ibrutinib): did not affect
BTK signaling [1]: blocked BTK signaling
SDF-1a triggered AKT and ERK activation [1]: attenuated
SDF-1a triggered AKT and ERK signaling [1]: did not show attenuation

c1cc(CN2CCCNCCNCCCNCC2)ccc1CN1CCCNCCNCCCNCC1 [AMD3100]
Annexin V staining: effect of adding AMD3100 to cells treated with ibrutinib and SDF-1a [5]: restoration of apoptotic changes
Annexin V studies: effect of AMD3100 on SDF-1a rescue of idelalisib treated cells [5, 13]: reversal of rescue
reversal of SDF-1a rescue by co-treatment with AMD3100 ([2]; idelalisib, fludarabine and bortezomib treated cells, AMD3100 30 uM): reversal of SDF1-a rescue
effect of concurrent CXCR4 antagonist on ibrutinib apoptosis in SDF-1a exposed cells ([4]; CXCR4^S338X, plerixafor 30 uM): restored the pro-apoptotic effects of ibrutinib
reversal of SDF-1a rescue from ibrutinib induced apoptosis [8]: could be reversed
reversal of SDF-1a mediated rescue by co-treatment with AMD3100 ([3]; all agents (bendamustine, fludarabine, bortezomib, idelalisib), AMD3100 30 uM): reversal of rescue
block of CXCL12 rescue from ibrutinib growth effect [9]: rescue could be blocked
SDF-1a triggered AKT and ERK activation [1, 11]: blocked both AKT and ERK activation
myelokathexis related leukopenia [10]: reversed myelokathexis related leukopenia

CC(C)C[C@H](NC(=O)[C@H](Cc1ccccc1)NC(=O)c1cnccn1)B(O)O [bortezomib]
level of SDF-1a mediated rescue from PARP and caspase 3 cleavage [2]: lesser levels of rescue
level of SDF-1a mediated rescue from PARP and caspase 3 cleavage [3]: moderate
